Laboratory results from patent US6593273B2, “Method for reducing pest damage to corn by treating transgenic corn seeds with pesticide” (priority 2000, dated 2003).

Tested on: western and northern corn rootworm
Test: Field trial (Example 3): corn rootworm damage by Iowa class, percent of control and synergy threshold
Type: in vivo
Method: The determination of damage by corn rootworm was made according to the following protocol. At stage V4-V6, an evaluation of early stand was made by counting the number of plants per acre. At stage VT-R1, an evaluation of corn rootworm damage was carried out by methods that are well known in the industry, and damage by corn rootworm was reported according to the Iowa 1-6 rating system. In that system, the root systems of 10 corn plants per plot are recovered and scored using the 1-6 rating scale, where: 1=no injury or only a few minor feeding scars, 2=feeding injury evident, but no roots eaten back to 1½ inches of the plant, 3=at least one root eaten off to within 1½ inches of the plant, but never an entire node of roots destroyed, 4=one node of roots eaten back to within 1½ inches of the plant, 5=two nodes (circles) of roots eaten back to within 1½ inches of the plant, 6=three nodes (circles) of roots eaten back to within 1½ inches of the plant.
A field trial was run in accordance with pertinent protocols and in conformance with USDA notification requirements. The purpose of the trial was to determine the efficacy of transgenic event Cry3Bb.11231 in corn seed in combination with corn rootworm seed treatments using imidacloprid.
For each growing site that was selected, the plot design included the following:
The following seed treatment combinations were used for each growing area:
All seed treatments with pesticides were carried out as described in Example 1. In seed treatment number 1 and 2, Gaucho® was used for wire worm protection, but at levels sufficiently low that it would be expected to have no effect on corn rootworms (i.e., at a treatment level of about 60 gm of active/100 kg seed or 0.16 mg active/kernel), otherwise, seed receiving treatment number 2 had only transgenic event Cry3Bb.11231 and no pesticide treatment that would be expected to be effective against corn rootworm.
For seeds having treatments numbered 3 through 5, the pesticides were applied by the methods described in Example 1. For seeds having treatment numbers 6 and 7, commercially available Force® 3G and Lorsban® 15G were applied to the soil in a 5″ band at the time of sowing. The levels of application are as shown and are within the ranges recommended for standard commercial practice.
Corn seeds to be tested were planted and grown at four different locations across several Midwestern states in the United States corn belt according to the protocol described above.
The determination of damage by corn root worm was made according to the protocol described in Example 2.
The combination of imidacloprid seed treatment with corn seed having a Cry3Bb.11231 transgenic event was tested for possible synergy at a level of rootworm damage of 3-6. In the first test, shown in Table 2(A), the percentage of test plants having damage levels of from 3 to 6, on the Iowa 1-6 Scale, was determined for the control and for seeds treated with the pesticide at two levels, and for seeds having the transgenic event, alone and in combination. The following formula was then used to calculate a “synergy threshold”:
(% of control Cry3Bb.11231)*(% of control imidacloprid treatment)/100.
This threshold was compared against the percent of control for the treatment combination (i.e., Cry3Bb.11231 with imidacloprid @ 400 gm/100 kg). If the treatment combination percent of control was below the threshold, then it was concluded that there was synergy.
It was believed that the measurement of rootworm damage at higher damage levels (i.e., levels 3-6) is a useful indicator that correlates with subsequent yield loss due to such damage. The reason for this is that rootworm damage at levels 1 and 2 seldom causes corn plants to fall over and lodge, and such minimal root loss is not believed to reduce the number or weight of kernels per ear. However, root damage at levels of 3 and above increasingly causes lodging and loss of yield. […]

SMILES: O=[N+]([O-])NC1=NCCN1Cc1ccc(Cl)nc1 [Imidacloprid, 1-[(6-chloro-3-pyridinyl)methol]-N-nitro-2-imidazolidinimime]
- PERCENT OF CONTROL (Table 2(A), plants with damage levels 3-6 relative to isohybrid control, imidacloprid @ 400 g/100 kg of seed): 80.5%
- NUMBER OF PLANTS HAVING 3-6 DAMAGE LEVEL (Table 2(B), Iowa 1-6 Scale levels 3-6, imidacloprid @ 400 gm/100 kg): 71.7
- PERCENT OF CONTROL (Table 2(B), damage levels 3-6 relative to untreated control, imidacloprid @ 400 gm/100 kg): 80.5%
- protection against corn rootworm damage (in words) (imidacloprid at 400 gm/100 kg of seed): effective against corn rootworm damage
- CORN ROOTWORM DAMAGE IN EACH IOWA CLASS (IOWA 1-6 SCALE): 1 (plants in Iowa class 1, imidacloprid @ 400 g/100 kg of seed, FORCE and LORSBAN as surface band at planting): 3
- CORN ROOTWORM DAMAGE IN EACH IOWA CLASS (IOWA 1-6 SCALE): 2 (plants in Iowa class 2, imidacloprid @ 400 g/100 kg of seed, FORCE and LORSBAN as surface band at planting): 15
- CORN ROOTWORM DAMAGE IN EACH IOWA CLASS (IOWA 1-6 SCALE): 3 (plants in Iowa class 3, imidacloprid @ 400 g/100 kg of seed, FORCE and LORSBAN as surface band at planting): 36
- CORN ROOTWORM DAMAGE IN EACH IOWA CLASS (IOWA 1-6 SCALE): 4 (plants in Iowa class 4, imidacloprid @ 400 g/100 kg of seed, FORCE and LORSBAN as surface band at planting): 21
- CORN ROOTWORM DAMAGE IN EACH IOWA CLASS (IOWA 1-6 SCALE): 5 (plants in Iowa class 5, imidacloprid @ 400 g/100 kg of seed, FORCE and LORSBAN as surface band at planting): 5
- CORN ROOTWORM DAMAGE IN EACH IOWA CLASS (IOWA 1-6 SCALE): 6 (plants in Iowa class 6, imidacloprid @ 400 g/100 kg of seed, FORCE and LORSBAN as surface band at planting): 0
